Measurements reported in US10808008B2, “Aromatic-cationic peptides and uses of same” (Cornell University, priority 2012, dated 2020).

Legend:
cytochrome c [1] = molecular target: T1, cytochrome c (Equus caballus, UniProt P00004); assay: Fluorescence quenching of labelled peptides by cytochrome c; type: binding, horse; parameters: from tissue; host or cells: horse heart; details: Example 22; additions of cytochrome c (2 μM)
Protocol: Maximal fluorescence emission of SS-19 was monitored at 420 nm following excitation at 320 nm using Hitachi F-4500 fluorescence spectrophotometer.
The quenching by cytochrome c was not displaced by sequential additions of bovine serum albumin (FIG. 12C, A+arrows) (500 μg/ml). […] Accordingly, aromatic-cationic peptides of the present disclosure are useful for the prevention or treatment of diseases or disorders characterized by dysregulation of cytochrome c.
Fluorescence emission of SS-19 (10 μM) was monitored in real time (Ex/Em=320 nm/420 nm) using Hitachi F-4500 fluorescence spectrophotometer.
Interaction of SS peptides with horse heart cytochrome c in the absence or presence of free cardiolipin or cardiolipin/POPC (1:1) liposomes (prepared as described in Example 22) was examined by fluorescence quenching of [atn]SS-02 (λex/λem=320/420 nm) and [ald]SS-02 (λex/λem=360/510 nm) upon addition of cytochrome c (using a Hitachi F-4500 fluorescence spectrophotometer). The solvents used to dissolve cardiolipin and POPC had negligible effect on cytochrome c-dependent quenching of these peptides. All experiments were done in low ionic solution (deionized water) or 20 mM Hepes pH 7.4.

cytochrome c [2] = molecular target: T1, cytochrome c; assay: as above; type: binding, horse; parameters: from tissue; host or cells: horse heart; details: additions of 75 μg/ml BSA
[3] = Fluorescence spectroscopy of labelled peptide with other phospholipids; type: binding; details: POPA, DPPG, POPS, cardiolipin
Protocol: 1-palmitoyl-2-oleoyl-sn-glycero-3-phosphocholine (POPC), 1-palmitoyl-2-oleoyl-sn-glycero-3-phosphate (POPA), 1-palmitoyl-2-oleoyl-sn-glycero-3-phospho-L-serine (POPS), 1-palmitoyl-2-oleoyl-sn-glycero-3-phosphoethanolamine (PE), and 1,2-dipalmitoyl-sn-glycero-3-phospho-(1′-rac-glycerol) (DPPG) were obtained from Avanti Polar Lipids Inc (Alabaster, Ala.).
Changes in the emission intensity of the [atn]SS-02 and the [ald]SS-02 were measured using a Hitachi F-4500 fluorescence spectrophotometer. The different solvents used to dissolve the various phospholipids (chloroform, methanol and ethanol) had negligible effect on the fluorescence spectrum of [atn]SS-02 and [ald]SS-02. All experiments were done in low ionic solution (deionized water) to optimize electrostatic interactions of peptides with phospholipids.

[4] = molecular target: cytochrome c/cardiolipin complex (Equus caballus, UniProt P00004); assay: Soret circular dichroism of cytochrome c with cardiolipin; type: biochemical; details: 10 μM cytochrome c, 30 μg/ml cardiolipin, peptide 1:1 with cytochrome c; pH 7.4
Chain of cytochrome c/cardiolipin complex (P00004 2-105 limits assumed, one chain of several): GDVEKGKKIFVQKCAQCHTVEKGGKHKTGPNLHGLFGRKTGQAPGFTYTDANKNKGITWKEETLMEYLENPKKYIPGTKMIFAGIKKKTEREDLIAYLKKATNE
Protocol: Circular dichroism (CD) was carried out to examine the effects of the peptides on protecting the heme environment of cytochrome c from the acyl chain of CL. For heme proteins, the Soret CD spectrum is strictly correlated with the heme pocket conformation. In particular, the negative 416-420 nm Cotton effect is considered diagnostic of Fe(III)-Met80 coordination in native cytochrome c (Santucci and Ascoli, 1997). […] CD spectra were obtained using AVIV CD Spectrometer Model 410.
Changes in the Soret CD spectrum of cytochrome c (10 μM) were recorded in the absence (dotted line) and presence (dashed line) of 30 μg/ml CL, plus addition of different peptides (10 μM) (solid line) (FIG. 14). CD measurements were carried out using 20 mM HEPES, pH 7.5, at 25° C. and expressed as molar ellipticity (A) (m Deg). […] Accordingly, aromatic-cationic peptides of the present disclosure are useful for the prevention or treatment of diseases or disorders characterized by dysregulation of cardiolipin and/or cytochrome c, and/or diseases or disorders characterized by dysregulation of the cardiolipin/cytochrome c interaction. In addition, aromatic-cationic peptides of the present disclosure are useful to protect the heme environment of cytochrome c from the acyl chain of cardiolipin.
Circular Dichroism (CD) spectra were collected with an AVIA 62 DS spectrophotometer equipped with a sample temperature controller. CD spectra of the Soret region (370-450 nm) were recorded with 10-mm path length cells containing 20 mM Hepes, pH 7.4, and 10 μM cytochrome c, in the presence or absence of 30 μg/ml cardiolipin and different SS peptide analogs (SS-02, [atn]SS-02, [ald]SS-02, and SS-31). The maximum lipid concentration was kept low to avoid spectral distortions due to excessive light scattering. All measurements were done at 25° C. All spectra were corrected for background, and the final spectrum shown represents the average of at least three experiments.

[5] = molecular target: cardiolipin-cytochrome c complex (Equus caballus, UniProt P00004); assay: Cytochrome c reduction in the presence of cardiolipin; type: biochemical; details: 40 μM peptide; 20 μM cytochrome c, 100 μg/ml cardiolipin, 50 μM ascorbate; 10% with cardiolipin alone
Chain of cardiolipin-cytochrome c complex (P00004 2-105 limits assumed, one chain of several): as above
Protocol: Reduction of cytochrome c (20 μM) was induced by the addition of glutathione (500 μM) in the absence or presence of CL (100 μg/ml) (FIG. 15A). Reduction of cytochrome c was monitored by absorbance at 550 nm using a 96-well UV-VIS plate reader (Molecular Devices). Addition of CL decreased the rate of cytochrome c reduction by half.
The time course of cytochrome c reduction by ascorbate was recorded at 550 nm and 570 nm using a 96-well plate reader (Molecular Devices, Sunnyvale, Calif.). For all reactions, cytochrome c was preincubated with cardiolipin in the presence or absence of SS peptides for 1 min. […] Ascorbate (50 μM) was added to initiate the reduction of cytochrome c, and the absorbance was recorded for 5 min. The rate of reduction was calculated based on slope of the change in absorbance intensity of 550 nm over 570 nm.

cytochrome c/CL complex = cytochrome c/CL complex (Equus caballus, UniProt P00004); assay: Peroxidase activity of cytochrome c/cardiolipin complex (Amplex Red); type: biochemical; details: 10 μM peptide; 2 μM cytochrome c; cardiolipin 100 μg/ml
Chain of cytochrome c/CL complex (P00004 2-105 limits assumed, one chain of several): as above
Excerpt: The six coordination of the heme in cytochrome c prevents direct interaction of H2O2 with the catalytic metal site, and native cytochrome c in solution is a poor peroxidase. Upon interaction with CL, cytochrome c undergoes a structural change with rupture of the Fe-Met80 coordination. […] The mechanism of action of cytochrome c peroxidase is similar to that of other peroxidases, such as horse radish peroxidase (HRP). Thus it is possible to use the amplex red-HRP reaction to investigate cytochrome c peroxidase activity. In the presence of peroxidase, amplex red (AR) reacts with H2O2 to form the red-fluorescent oxidation product, resorufin (Ex/Em=571/585).
Cytochrome c (2 μM) was mixed with CL (25 μg/ml) and 10 μM H2O2 in 20 mM HEPES, pH 7.4. Amplex red (50 μM) was then added and fluorescence emission monitored in real time using Hitachi F4500 fluorescence spectrophotometer. Addition of amplex red elicited rapid increase in fluorescence signal due to resorufin formation, providing direct evidence for peroxidase activity of cytochrome c/CL complex (FIG. 19A).
Assessment of cytochrome c peroxidase activity was achieved using the Amplex® Red assay (Invitrogen/Life Technologies, Carlsbad, Calif.). Amplex® Red is a reagent that reacts with H2O2 in a 1:1 stoichiometry to produce highly fluorescent resorufin (λex/λem=570/585) in the presence of a peroxidase. In this assay, cytochrome c is added in place of horseradish peroxidase. 2 μM cytochrome c was incubated with cardiolipin or cardiolipin-POPC liposomes (10 μg/ml) for 1 min in 20 mM HEPES (pH 7.4) or deionized water prior to the addition of 50 μM Amplex® Red reagent and 10 μM H2O2, and the reaction was allowed to proceed for an additional 5 minutes. The continuous time course data were obtained using Hitachi F-4500 fluorescence spectrophotometer. When comparing the different SS peptide analogs (10 μM) in inhibiting peroxidase activity cytochrome c (2 μM) in the presence of cardiolipin (100 μg/ml), a microplate spectrofluorometer (Molecular Devices, Sunnyvale, Calif.) was used. Horseradish peroxidase (HRP) was used for comparison, and the HRP concentration (0.001 U/ml) was optimized to match the rate of Amplex® Red peroxidation by cardiolipin-cytochrome c complex.

[6] = molecular target: cytochrome c and cardiolipin (Equus caballus, UniProt P00004); assay: Oxidation of ferrous cytochrome c by cardiolipin (A550); type: biochemical; details: 20 μM cytochrome c reduced by 50 μM ascorbic acid; 100 μg/ml cardiolipin
Chain of cytochrome c and cardiolipin (P00004 2-105 limits assumed): as the sequence (P00004 2-105 limits assumed, one chain of several) above
Protocol: Cytochrome c (20 μM) was reduced by 50 μM ascorbic acid until all available functionally active cytochrome c was reduced. The reduction of cytochrome c was monitored by the appearance of a peak at 550 nm in its absorbance spectrum (Molecular Devices, Sunnyvale, Calif.). […] The rate of oxidation was calculated based on slope of the change in absorbance intensity of 550 nm over 570 nm.

T1 sequence (P00004 2-105 limits assumed): as the sequence (P00004 2-105 limits assumed, one chain of several) above

Row | Substance | quenching of fluorescence by cytochrome c (cytochrome c [1]) | reversal of cytochrome c quenching by BSA (cytochrome c [2]) | specificity of peptide-phospholipid interaction [3] | loss of the negative Cotton peak at 419 nm caused by cardiolipin [4] | rate of cytochrome c reduction in the presence of cardiolipin [5] | peroxidation rate of cytochrome c (cytochrome c/CL complex) | oxidation of cytochrome c by cardiolipin (loss of the 550 nm peak) [6]
1 | tetramethylrhodamine methyl ester [TMRM, reference compound] | slightly quenched | completely reversed quenching |  |  |  |  | 
2 | 2′,6′-Dmt-D-Arg-Phe-Lys-NH2 [SS-02] |  |  | specific for phospholipids with anionic headgroups | prevented | about 60% | about 70 % of control | inhibition of cytochrome c oxidation
